Data: publication PMC6099547, “Expression, Purification, and Characterization of a Novel Hybrid Peptide with Potent Antibacterial Activity” (Molecules : A Journal of Synthetic Chemistry and Natural …, 2018)
Marks after values point to notes of the source that are not given here. Where a SMILES comes first, the peptide text is derived from it.

Experiments:
pepsin = assay: Protease susceptibility, residual activity by inhibition zone assay; format: in vitro ADME; settings: pepsin 10 μg/mL in PBS, agar diffusion inhibition zone; for Functional activity maintained under pepsin: peptide 1 μM in PBS, control without enzyme, S. aureus ATCC25923, three replicates
Method: (§1) CVCC1599 as indicator strains. […] Each assay was performed in triplicate.

proteinase K = proteinase K (Parengyodontium album, UniProt P06873); assay: as above; format: in vitro ADME; settings: proteinase K 10 μg/mL in PBS, peptide 1 μM in PBS; control without enzyme; agar diffusion inhibition zone, S. aureus ATCC25923; three replicates
proteinase K, sequence (P06873 106-384): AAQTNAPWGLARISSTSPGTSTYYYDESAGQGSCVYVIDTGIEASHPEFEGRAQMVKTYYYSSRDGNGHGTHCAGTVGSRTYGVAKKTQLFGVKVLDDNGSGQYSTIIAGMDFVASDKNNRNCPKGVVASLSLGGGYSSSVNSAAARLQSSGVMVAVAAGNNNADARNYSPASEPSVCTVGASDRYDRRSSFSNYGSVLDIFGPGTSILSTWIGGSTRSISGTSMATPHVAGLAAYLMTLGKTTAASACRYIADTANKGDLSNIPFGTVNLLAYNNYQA
Method: as §1

trypsin = assay: as above; settings: trypsin 10 μg/mL in PBS, peptide 1 μM in PBS; control without enzyme; agar diffusion inhibition zone, S. aureus ATCC25923; three replicates
Method: Antibacterial activity of recombinant C–L was assayed by the agar diffusion method with S. aureus ATCC25923 as indicator strain. […] The same volume of PBS was used as negative control. The inhibition zone was measured after incubation overnight at 37 °C. […] CVCC1599 as indicator strains. The indicator strains were cultured at 37 °C to logarithmic stage and diluted to the concentration of 1 × 10^6 cfu/mL with Mueller–Hinton (MH) broth medium, and 180 µL culture was dispensed into per well of 96-well microtiter plate. Peptides were then serially diluted, and dilutions were added into the wells (final volume 200 µL). Each assay was performed in triplicate. After incubation at 37 °C for 12 h, the plate was assessed by measuring the OD600. The MIC was defined as the lowest concentration (at which there was no change in optical density) required to prevent the growth of bacteria.
The stability of the purified recombinant C–L and synthesized C–L at different pH values (2.0–11.0) and different temperatures (37, 50, 60, 70, 80, 90, and 100 °C for 20 min) was evaluated. […] Stability of recombinant C–L and synthesized C–L was assessed by the agar diffusion method as described above and the inhibition zones were recorded. S. aureus ATCC25923 was used as the indicator strain and the inhibition zones were recorded.

E. coli CVCC245 = format: cell-based, Escherichia coli; settings: CVCC245, 12 h
Method: as §1

S. aureus ATCC 25923 = format: cell-based, Staphylococcus aureus; settings: ATCC 25923, 12 h
Method: as §1

L. mono. CVCC1599 = format: cell-based, Listeria monocytogenes; settings: 12 h
Method: as §1

sheep erythrocytes = assay: Hemolytic assay; format: cell-based; settings: red cells of sheep
Method: Peptide concentrations that caused 50% hemolysis of sheep erythrocytes at 540 nm were measured to evaluate the hemolytic activities. Sheep erythrocytes with 10 mM phosphate buffered saline (PBS)/0.1% (v/v) Triton X-100 (Sigma, San Francisco, CA, USA) added were used as negative/positive control. Assays were performed in triplicate.

| SMILES | Functional activity maintained under pepsin (pepsin) | Reduction in activity when exposed to pepsin (pepsin; peptide 1 μM) | Functional activity maintained under proteinase K (proteinase K) | Functional activity maintained under trypsin (trypsin) | MIC (E. coli CVCC245) | MIC (S. aureus ATCC 25923) | MIC (L. mono. CVCC1599) | HC50 (hemolytic activity) (sheep erythrocytes) |
| --- | --- | --- | --- | --- | --- | --- | --- | --- |
| CC[C@H](C)[C@H](NC(=O)[C@H](CCCCN)NC(=O)[C@H](CCCCN)NC(=O)[C@H](Cc1ccccc1)NC(=O)[C@H](CC(C)C)NC(=O)[C@H](CCCCN)NC(=O)[C@H](Cc1c[nH]c2ccccc12)NC(=O)[C@@H](N)CCCCN)C(=O)N[C@@H](Cc1ccccc1)C(=O)N[C@@H](CCCCN)C(=O)N[C@@H](CCCNC(=N)N)C(=O)N[C@H](C(=O)N[C@H](C(=O)N[C@@H](CCC(N)=O)C(=O)N[C@@H](CCCNC(=N)N)C(=O)N[C@H](C(=O)N[C@@H](CCCCN)C(=O)N[C@@H](CC(=O)O)C(=O)N[C@@H](Cc1ccccc1)C(=O)N[C@@H](CC(C)C)C(=O)N[C@@H](CCCNC(=N)N)C(=O)N[C@@H](CC(N)=O)C(=O)O)[C@@H](C)CC)C(C)C)[C@@H](C)CC [C–L, cecropin A (1–8)–LL37 (17–30)] (H-KWKLFKKIFKRIVQRIKDFLRN-OH) | over 50% | nearly half reduction in activity | over 50% | over 50% |  |  |  |  |
| CC[C@H](C)[C@H](NC(=O)[C@H](CCCCN)NC(=O)[C@H](CCCCN)NC(=O)[C@H](Cc1ccccc1)NC(=O)[C@H](CC(C)C)NC(=O)[C@H](CCCCN)NC(=O)[C@H](Cc1c[nH]c2ccccc12)NC(=O)[C@@H](N)CCCCN)C(=O)N[C@@H](Cc1ccccc1)C(=O)N[C@@H](CCCCN)C(=O)N[C@@H](CCCNC(=N)N)C(=O)N[C@H](C(=O)N[C@H](C(=O)N[C@@H](CCC(N)=O)C(=O)N[C@@H](CCCNC(=N)N)C(=O)N[C@H](C(=O)N[C@@H](CCCCN)C(=O)N[C@@H](CC(=O)O)C(=O)N[C@@H](Cc1ccccc1)C(=O)N[C@@H](CC(C)C)C(=O)N[C@@H](CCCNC(=N)N)C(=O)N[C@@H](CC(N)=O)C(=O)O)[C@@H](C)CC)C(C)C)[C@@H](C)CC [Recombinant C–L] (H-KWKLFKKIFKRIVQRIKDFLRN-OH) | almost the same stability |  | almost the same stability | almost the same stability | 7.2 ± 0.14 ^b μg/mL | 2.2 ± 0.05 ^c μg/mL | 2.1 ± 0.03 ^c μg/mL | 221 ± 3.45 ^a μg/mL |
| CC[C@H](C)[C@H](NC(=O)[C@H](CCCCN)NC(=O)[C@H](CCCCN)NC(=O)[C@H](Cc1ccccc1)NC(=O)[C@H](CC(C)C)NC(=O)[C@H](CCCCN)NC(=O)[C@H](Cc1c[nH]c2ccccc12)NC(=O)[C@@H](N)CCCCN)C(=O)N[C@@H](Cc1ccccc1)C(=O)N[C@@H](CCCCN)C(=O)N[C@@H](CCCNC(=N)N)C(=O)N[C@H](C(=O)N[C@H](C(=O)N[C@@H](CCC(N)=O)C(=O)N[C@@H](CCCNC(=N)N)C(=O)N[C@H](C(=O)N[C@@H](CCCCN)C(=O)N[C@@H](CC(=O)O)C(=O)N[C@@H](Cc1ccccc1)C(=O)N[C@@H](CC(C)C)C(=O)N[C@@H](CCCNC(=N)N)C(=O)N[C@@H](CC(N)=O)C(=O)O)[C@@H](C)CC)C(C)C)[C@@H](C)CC [Synthesized C–L] (H-KWKLFKKIFKRIVQRIKDFLRN-OH) | maintained a portion of functional activity |  | maintained a portion of functional activity | maintained a portion of functional activity | 7.0 ± 0.21 ^b μg/mL | 2.0 ± 0.02 ^c μg/mL | 2.2 ± 0.05 ^c μg/mL | 219 ± 2.98 ^a μg/mL |
